The assay addresses T1, CFTR (F508del/MF-HBE cells) (Homo sapiens, UniProt P13569, DEL508-508).
T1 construct: human bronchial epithelial (HBE) cells derived from CF subjects heterozygous for F508del and a minimal function CFTR mutation; endogenous in cells; host or cells: primary human bronchial epithelial cells from CF subjects (F508del/MF genotype)
Nature of the assay: Ussing chamber assay of CFTR-mediated short-circuit currents (identification of potentiator compounds). Type of assay: cell-based. To be noted: CFTR-mediated ISC in F508del/MF-HBE cells; incubated 18-24 hours at 37° C. with 10 μM (14S)-8-[3-(2-{dispiro[2.0.2.1]heptan-7-yl}ethoxy)-1H-pyrazol-1-yl]-...-2,2,4-trione, 20% human serum. The procedure:
Ussing Chamber Assay of CFTR-Mediated Short-Circuit Currents
Ussing chamber experiments were performed using human bronchial epithelial (HBE) cells derived from CF subjects heterozygous for F508del and a minimal function CFTR mutation (F508del/MF-HBE) and cultured as previously described (Neuberger T, Burton B, Clark H, Van Goor F Methods Mol Biol 2011:741:39-54). After four days the apical media was removed, and the cells were grown at an air liquid interface for >14 days prior to use.
To isolate the CFTR-mediated short-circuit (ISC) current, F508del/MF-HBE grown on Costar® Snapwell™ cell culture inserts were mounted in an Ussing chamber and the transepithelial ISC was measured under voltage-clamp recording conditions (Vhold=0 mV) at 37° C. The basolateral solution contained (in mM) 145 NaCl, 0.83 K2HPO4, 3.3 KH2PO4, 1.2 MgCl2, 1.2 CaCl2), 10 Glucose, 10 HEPES (pH adjusted to 7.4 with NaOH) and the apical solution contained (in mM) 145 NaGluconate, 1.2 MgCl2, 1.2 CaCl2), 10 glucose, 10 HEPES (pH adjusted to 7.4 with NaOH) and 30 μM amiloride to block the epithelial sodium channel. Forskolin (20 μM) was added to the apical surface to activate CFTR, followed by apical addition of a CFTR inhibitor cocktail consisting of BPO, GlyH-101 and CFTR inhibitor 172 (each at 20 μM final assay concentration) to specifically isolate CFTR currents. The CFTR-mediated ISC (μA/cm^2) for each condition was determined from the peak forskolin response to the steady-state current following inhibition.
Identification of Potentiator Compounds
The activity of the CFTR potentiator compounds on the CFTR-mediated ISC was determined in Ussing chamber studies as described above. The F508del/MF-HBE cell cultures were incubated with the potentiator compounds at a range of concentrations in combination with 10 μM (14S)-8-[3-(2-{dispiro[2.0.2.1]heptan-7-yl}ethoxy)-1H-pyrazol-1-yl]-12,12-dimethyl-2λ^6-thia-3,9,11,18,23-pentaazatetracyclo [17.3.1.111,14.05,10]tetracosa-1(22),5,7,9,19(23),20-hexaene-2,2,4-trione for 18-24 hours at 37° C. and in the presence of 20% human serum. The concentration of potentiator compounds and (14S)-8-[3-(2-{dispiro[2.0.2.1]heptan-7-yl}ethoxy)-1H-pyrazol-1-yl]-12,12-dimethyl-2λ^6-thia-3,9,11,18,23-pentaazatetracyclo [17.3.1.111,14.05,10]tetracosa-1(22),5,7,9,19(23),20-hexaene-2,2,4-trione used during the 18-24 hours incubations was kept constant throughout the Ussing chamber measurement of the CFTR-mediated ISC to ensure compounds were present throughout the entire experiment. The efficacy and potency of the putative F508del potentiators was compared to that of the known Vertex potentiator, ivacaftor (N-[2,4-bis(1,1-dimethylethyl)-5-hydroxyphenyl]-1,4-dihydro-4-oxoquinoline-3-carboxamide).

Bounds are passed on as bounds.

T1 sequence (P13569 with tags, fused parts or gaps DEL508-508): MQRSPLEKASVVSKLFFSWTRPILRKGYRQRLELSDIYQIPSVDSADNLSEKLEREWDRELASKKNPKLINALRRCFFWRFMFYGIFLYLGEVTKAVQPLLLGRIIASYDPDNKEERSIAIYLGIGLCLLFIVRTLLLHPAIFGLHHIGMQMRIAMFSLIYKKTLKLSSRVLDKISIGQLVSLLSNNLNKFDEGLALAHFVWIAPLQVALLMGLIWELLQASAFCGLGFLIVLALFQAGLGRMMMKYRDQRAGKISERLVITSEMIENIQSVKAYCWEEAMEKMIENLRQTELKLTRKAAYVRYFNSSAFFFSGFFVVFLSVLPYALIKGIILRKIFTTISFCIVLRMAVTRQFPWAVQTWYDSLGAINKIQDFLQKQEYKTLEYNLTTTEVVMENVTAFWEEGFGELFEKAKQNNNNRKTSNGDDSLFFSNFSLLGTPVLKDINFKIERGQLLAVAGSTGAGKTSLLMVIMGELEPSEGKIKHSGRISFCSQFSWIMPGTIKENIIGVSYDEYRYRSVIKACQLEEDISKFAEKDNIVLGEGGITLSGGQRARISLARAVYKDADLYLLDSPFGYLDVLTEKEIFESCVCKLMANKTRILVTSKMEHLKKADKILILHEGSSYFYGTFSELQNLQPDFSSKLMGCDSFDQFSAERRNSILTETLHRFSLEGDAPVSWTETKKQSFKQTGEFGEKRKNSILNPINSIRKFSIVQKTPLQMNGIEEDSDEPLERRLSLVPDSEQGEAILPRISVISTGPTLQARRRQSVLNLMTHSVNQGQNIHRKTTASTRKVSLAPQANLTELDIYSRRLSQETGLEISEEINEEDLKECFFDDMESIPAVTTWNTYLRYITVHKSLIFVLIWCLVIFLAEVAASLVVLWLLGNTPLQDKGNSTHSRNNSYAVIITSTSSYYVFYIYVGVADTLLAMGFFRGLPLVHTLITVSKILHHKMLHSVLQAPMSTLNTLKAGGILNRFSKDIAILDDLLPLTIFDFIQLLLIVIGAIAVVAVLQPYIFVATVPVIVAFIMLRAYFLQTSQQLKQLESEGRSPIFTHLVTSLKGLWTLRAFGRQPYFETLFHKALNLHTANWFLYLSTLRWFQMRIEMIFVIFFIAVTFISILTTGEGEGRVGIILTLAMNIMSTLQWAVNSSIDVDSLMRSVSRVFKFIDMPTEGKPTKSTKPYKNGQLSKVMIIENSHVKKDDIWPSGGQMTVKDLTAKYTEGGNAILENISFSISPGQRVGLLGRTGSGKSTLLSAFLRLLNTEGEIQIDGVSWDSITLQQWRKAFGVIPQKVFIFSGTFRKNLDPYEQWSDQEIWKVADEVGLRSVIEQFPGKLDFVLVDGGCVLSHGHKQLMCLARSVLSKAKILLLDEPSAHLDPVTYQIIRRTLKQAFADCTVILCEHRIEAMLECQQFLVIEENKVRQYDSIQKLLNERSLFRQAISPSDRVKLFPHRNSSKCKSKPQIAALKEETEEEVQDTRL

Usually EC50 stands for the concentration at which the effect is half-maximal. With `CN1CCC=CCCC(=O)C2=NN=C(O2)c2nc1c(C(F)(F)F)cc2N` (mixture of isomers) [Compound 75, 17-amino-13-methyl-15-(trifluoromethyl)-19-oxa-3,4,13,18-tetrazatricyclo[12.3.1.12,5]nonadeca-1(18),2,4,9,14,16-hexaen-6-one], the EC50 is less than 500 nM. For `Nc1cc(-c2ccccc2)c2nc1-c1nnc(o1)C(O)(C(F)(F)F)CCCCC[C@@H]1CCCN21` (mixture of isomers) [Compound 118, (12R)-20-amino-18-phenyl-6-(trifluoromethyl)-22-oxa-3,4,16,21-tetraazatetracyclo[15.3.1.12,5.012,16]docosa-1(21),2,4,17,19-pentaen-6-ol], the EC50 was greater than 1000 nM. To `Nc1cc(C2CCOCC2)c2nc1-c1nnc(o1)C(O)(C(F)(F)F)CCCCC[C@@H]1CCCN21` (mixture of isomers) [Compound 123, (12R)-20-amino-18-(oxan-4-yl)-6-(trifluoromethyl)-22-oxa-3,4,16,21-tetraazatetracyclo[15.3.1.12,5.012,16]docosa-1(21),2,4,17,19-pentaen-6-ol] belongs greater than 1000 nM; to `Nc1cc(-c2ccncc2)c2nc1-c1nnc(o1)C(O)(C(F)(F)F)CCCCC[C@@H]1CCCN21` (mixture of isomers) [Compound 125, (12R)-20-amino-18-(pyridin-4-yl)-6-(trifluoromethyl)-22-oxa-3,4,16,21-tetraazatetracyclo[15.3.1.12,5.012,16]docosa-1(21),2,4,17,19-pentaen-6-ol], greater than 1000 nM. As to `Nc1cc(C2CCOC2)c2nc1-c1nnc(o1)C(O)(C(F)(F)F)CCCCC[C@@H]1CCCN21` (mixture of isomers) [Compound 126, (12R)-20-amino-18-(oxolan-3-yl)-6-(trifluoromethyl)-22-oxa-3,4,16,21-tetraazatetracyclo[15.3.1.12,5.012,16]docosa-1(21),2,4,17,19-pentaen-6-ol], the EC50 is greater than 1000 nM.

In the case of `Cn1cc(-c2cc(N)c3nc2N2CCC[C@H]2CCCCCC(O)(C(F)(F)F)C2=NN=C3O2)cn1` (mixture of isomers) [Compound 127, (12R)-20-amino-18-(1-methyl-1H-pyrazol-4-yl)-6-(trifluoromethyl)-22-oxa-3,4,16,21-tetraazatetracyclo[15.3.1.12,5.012,16]docosa-1(21),2,4,17,19-pentaen-6-ol], the EC50 is less than 500 nM. Then `Nc1cc(-c2cn[nH]c2)c2nc1-c1nnc(o1)C(O)(C(F)(F)F)CCCCC[C@@H]1CCCN21` (mixture of isomers) [Compound 128, (12R)-20-amino-18-(1H-pyrazol-4-yl)-6-(trifluoromethyl)-22-oxa-3,4,16,21-tetraazatetracyclo[15.3.1.12,5.012,16]docosa-1(21),2,4,17,19-pentaen-6-ol], with less than 500 nM. To `Nc1cc(C2CCCCC2)c2nc1-c1nnc(o1)C(O)(C(F)(F)F)CCCCC[C@@H]1CCCN21` (mixture of isomers) [Compound 129, (12R)-20-amino-18-cyclohexyl-6-(trifluoromethyl)-22-oxa-3,4,16,21-tetraazatetracyclo[15.3.1.12,5.012,16]docosa-1(21),2,4,17,19-pentaen-6-ol] belongs less than 500 nM; to `Nc1cc(-c2ccccn2)c2nc1-c1nnc(o1)C(O)(C(F)(F)F)CCCCC[C@@H]1CCCN21` (mixture of isomers) [Compound 132, (12R)-20-amino-18-(pyridin-2-yl)-6-(trifluoromethyl)-22-oxa-3,4,16,21-tetraazatetracyclo[15.3.1.12,5.012,16]docosa-1(21),2,4,17,19-pentaen-6-ol], greater than 1000 nM; to `Nc1cc(S(=O)(=O)c2ccccc2)c2nc1-c1nnc(o1)C(O)(C(F)(F)F)CCCCC[C@@H]1CCCN21` (mixture of isomers) [Compound 133, (12R)-20-amino-18-(benzenesulfonyl)-6-(trifluoromethyl)-22-oxa-3,4,16,21-tetraazatetracyclo[15.3.1.12,5.012,16]docosa-1(20),2,4,17(21),18-pentaen-6-ol], less than 500 nM. Take `Nc1cc(Cc2ccccc2)c2nc1-c1nnc(o1)C(O)(C(F)(F)F)CCCCC[C@@H]1CCCN21` (mixture of isomers) [Compound 137, (12R)-20-amino-18-benzyl-6-(trifluoromethyl)-22-oxa-3,4,16,21-tetraazatetracyclo[15.3.1.12,5.012,16]docosa-1(21),2,4,17,19-pentaen-6-ol]: the EC50 is less than 500 nM. To `Nc1cc(C(F)(F)F)c2nc1-c1nnc(o1)[C@@](O)(C(F)(F)F)c1cc(ccc1F)C=CC[C@@H]1CCCN21` (mixture of isomers) [Compound 138, (6R,15S)-23-amino-8-fluoro-6,21-bis(trifluoromethyl)-26-oxa-3,4,19,24-tetraazapentacyclo[18.3.1.12,5.17,11.015,19]hexacosa-1(24),2,4,7(25),8,10,12,20,22-nonaen-6-ol] belongs less than 500 nM; to `Nc1cc(C(F)(F)F)c2nc1-c1nnc(o1)[C@](O)(C(F)(F)F)c1cc(ccc1F)C=CC[C@@H]1CCCN21` (mixture of isomers) [Compound 139, (6S,15S)-23-amino-8-fluoro-6,21-bis(trifluoromethyl)-26-oxa-3,4,19,24-tetraazapentacyclo[18.3.1.12,5.17,11.015,19]hexacosa-1(24),2,4,7(25),8,10,12,20,22-nonaen-6-ol], greater than 1000 nM; to `NC(=O)c1cc(N)c2nc1N1CCC[C@H]1CCCCCC(O)(C(F)(F)F)C1=NN=C2O1` (mixture of isomers) [Compound 142, (12R)-20-amino-6-hydroxy-6-(trifluoromethyl)-22-oxa-3,4,16,21-tetraazatetracyclo[15.3.1.12,5.012,16]docosa-1(21),2,4,17,19-pentaene-18-carboxamide], greater than 1000 nM. On to `Nc1cc(S(=O)(=O)c2ccc(OC(F)(F)F)cc2)c2nc1-c1nnc(o1)C(O)(C(F)(F)F)CCCCC[C@@H]1CCCN21` (mixture of isomers) [Compound 143, (12R)-20-amino-18-[4-(trifluoromethoxy)benzenesulfonyl]-6-(trifluoromethyl)-22-oxa-3,4,16,21-tetraazatetracyclo[15.3.1.12,5.012,16]docosa-1(20),2,4,17(21),18-pentaen-6-ol], for which the EC50 is less than 500 nM.

Regarding `Nc1cc([S+]([O-])c2ccc(OC(F)(F)F)cc2)c2nc1-c1nnc(o1)C(O)(C(F)(F)F)CCCCC[C@@H]1CCCN21` (mixture of isomers) [Compound 145, (12R)-20-amino-18-[4-(trifluoromethoxy)benzenesulfinyl]-6-(trifluoromethyl)-22-oxa-3,4,16,21-tetraazatetracyclo[15.3.1.12,5.012,16]docosa-1(21),2,4,17,19-pentaen-6-ol], the EC50 is less than 500 nM. In the case of `Nc1cc(C(F)(F)F)c2nc1-c1nnc(o1)[C@](O)(C(F)(F)F)CCCCC[C@H]1CCCN21` (single isomer, unassigned) [Compound 6], the EC50 fell in the range of 500 to 1000 nM.

As to `Nc1cc(C(F)(F)F)c2nc1-c1nnc(o1)[C@@](O)(C(F)(F)F)CCCCC[C@H]1CCCN21` (single isomer, unassigned) [Compound 7], the EC50 is less than 500 nM. With `CN1CCCCCCC(O)(C(F)(F)F)C2=NN=C(O2)c2nc1c(C(F)(F)F)cc2N` (single isomer, unassigned) [Compound 19, 17-amino-13-methyl-6,15-bis(trifluoromethyl)-19-oxa-3,4,13,18-tetrazatricyclo[12.3.1.12,5]nonadeca-1(18),2,4,14,16-pentaen-6-ol], the EC50 is less than 500 nM.

The record behind these values is patent US12324802B2, “Modulators of cystic fibrosis transmembrane conductance regulator” (Vertex Pharmaceuticals Incorporated, priority 2020, dated 2025).
